Residues, ends and D or L forms follow the SMILES beside them. *: point of attachment. AFC = O=c1cc(C(F)(F)F)c2ccc(N*)cc2o1; Cbz = O=C(OCc1ccccc1)*; Boc = CC(C)(C)OC(=O)*
Experiments:
Format in all cases: biochemical
[1] = system: purified Taenia solium cysteine protease; test: Competitor assay: vehicle inhibition of cleavage of high Vmax AFC substrate cocktails (Step III); settings: purified protease; P = inhibition with first (1.4%) cocktail, M = inhibition with last (7.4%) cocktail
Experimental: (We employed “Vmax” here although Kcat could also be used). Due to the lower number of substrates, a percentage was not chosen for the “BOTTOM %” substrates. Alternately, all substrates which were not cleaved as determined by a value of 10 μM/hr or less, were chosen to be tested in this step for competitive ability. From this point forth, the term “vehicle” will represent low Vmax substrates that were capable of inhibiting cleavage of the percent cocktails. In this instance, we tested for “vehicles” which inhibited cleavage of the TOP 1.4% cocktail (they were delivered into the active site). Based upon our results from Step II, the top 1.4% cocktail was composed of Z-Phe-Arg-AFC, the highest cleaved substrate.
The experiment began with a competitor test between the noncleaved low Vmax substrates and the highest Vmax substrate, Z-Phe-Arg-AFC. Concentrations were varied between the low Vmax substrate and Z-Phe-Arg-AFC, as described above under “refinement of assay” until a relative inhibition profile was obtained.
The mixture was allowed to equilibrate for a period of 30 minutes. Finally, active purified enzyme was added to the tubes at a concentration which was always 50 times less than the concentration of the high and low Vmax substrates, in order to insure saturation conditions. This concentration varied from purification to purification and the amount added depended upon the yield and specific activity of the purified protease.
Positive controls were set up similarly as described for test controls, except that solvent was added in substitution for the low Vmax substrate (in a volume equal to the low Vmax volume addition). All of the substrates could be dissolved in dimethylsulfoxide (DMSO), and therefore, this was the solvent of choice. Negative controls were set up by adding the low Vmax and the high Vmax substrate in a tube without the protease. All potential non-proteolytic induced liberation of AFC was therefore controlled for in this tube (a feature which also insured stability of the AFC substrates, since these substrates will freely liberate AFC when unstable). A tube set will be established for this negative control.
All controls were set up in triplicate, and experiments repeated a minimum of five times. The assays were incubated at 37° C., for 18 hours overnight.
Percent inhibition was calculated as: [formula]
A 2.9% cocktail of the high Vmax substrates was made. This was composed of Z-FR-AFC and the second most cleaved substrate, Z-FAR-AFC. The vehicles promoted from the initial screenings above were again tested for competitive inhibition ability with the new cocktails. Their concentrations were set identically to those which were “fixed” in the previous protocols. […]

Taenia solium crude mix = test: Competitor assay with crude mix as source of the protease (Step III)
Experimental: In order to prepare the Taenia solium “crude mix” , dry frozen Taenia solium cysts were obtained from 6-12 month old cysticercotic pigs from villages in an endemic area of porcine cysticercosis in Mexico. Metacestodes were carefully dissected from the parasitized tissues, washed three times with PBS, and lyophilized. Parasite extracts were prepared by suspending 0.1 grams of dry frozen cysts in 10 ml of extraction buffer (0.4 M citrate, pH 4.9). The cysts were vortexed for three five-minute intervals with intermittent incubations (5 min) at 4 ° C. Particulate material was removed by centrifugation (20,000 x g, 120 min) and the resulting soluble fraction filtered ([…]). In assay buffers, the detectable amount of the crude mix, as described above, was employed and incubated with the target substrates.
One of the most intriguing findings in this experiment was that a highly similar inhibition pattern for the competitor assay was noted when the crude mix was employed as the source of the target protease. Although there were some variations in the effects of inhibitor dilution, the most highly ranked vehicles remained inhibitory consistently in comparison to the profile with the target protease. The relative profile and composition of the top tiers of vehicles was identical. Z-LLL-AFC, Z-LLY-AFC, Mu-LY-AFC, Boc-VPR-AFC, Z-SY-AFC, Z-RR-AFC, Z-FLF-AFC, Z-LGR-AFC consistently presented as the top eight vehicles (FIG. 5b), respectively, based upon their V values (Table 2). […] It was notable that the three vehicles had very similar V values. […] As was mentioned, this vehicle along with Z-LLL-AFC and Z-LLY-AFC, were consistently the most inhibitory vehicles. The V values of the most inhibitory vehicle series are shown below in Table 2. Again, a clear break between the first and second tier vehicles could be noted with the V value.

[2] = system: purified Taenia solium cysteine protease; test: Screen of AFC-linked synthetic substrates for cleavage (Step II); settings: pH 4.9, 18 h, 37° C
Experimental: In this step, the most efficacious substrate for detection of the cysteine protease (high Kcat substrate) was determined in vitro along with those substrates which were not well cleaved (low kcat substrates). From this point forth, the following conditions refer to all assays: “assay buffer” refers to 0.4 M Citrate, pH 4.9 (the pH optima of the protease). Incubation time was 18 hours at 37° C. These conditions were determined by our preliminary data to be best for kinetic evaluation of the protease. […] The experiments were conducted in […] Borosilicate mini-culture tubes (Fisher Scientific), and a fluorometer (Turner) was employed for detection of AFC cleavage.
Approximately 1 ug (or a proteolytically detectable amount) of the purified target cysteine protease was incubated individually, with 1 μg of each of the available substrates in 500 μL of assay buffer. During this setup, the substrate was pre-incubated in the assay buffer for a short period of time (20 minutes) in order to reach an equilibrated status before the addition of the protease. Cleavage assessments were based upon the property of the protease to cleave synthetic peptide substrates linked at the C-terminus to 7-Amino-4-Trifluoromethyl Coumarin (AFC) as previously described. AFC linked tripeptides, dipeptides, and monopeptides, (with a variety of permutations at P3-P1) were available from Enzyme Systems Products (Livermore, CA), and were used as the source of the subset. Following incubation of enzyme preparations overnight (18 h, 37 ° C.) with peptide in assay buffer (Citrate, pH 4.9, supplemented with 0.01 M cysteine), free AFC concentrations were measured fluorometrically (excitation […]). The proteolytic cleavage released the AFC group, which was measurable as a free molecule by a standard fluorometer and converted into molar quantities, based upon a previously established standard curve. The simplicity of AFC detection by the fluorometer was a key factor which quickened and simplified the procedures.
In the assay, 1 ug of the purified Taenia cysteine protease was added to a saturating amount of Z-Phe-Arg-AFC (4×10^−5 M) in assay buffer. The experiment was conducted in triplicate and repeated at least 5 times until we were certain that variability in AFC cleavage was not statistically significant.
Vmax was calculated for the cleavage of substrates by the purified target protease and Vmax was calculated for substrates cleaved by the crude mix protease using conventional kinetic modeling calculations already described in the art.

[3] = system: purified Taenia solium cysteine protease; test: Protease inactivator inhibition assay (EC100, Ki; Step VII)
From the text: Once the protease inactivators were synthesized in the organic laboratory, they were to be tested for the lowest efficacious concentrations at which they induced 100% inhibition of the target protease (EC100). The top percent cocktail that was employed in the final vehicle selection step of Step III was employed as the source of competition for the inhibitors. In this case, this was the […] which was comprised of Z-FR-AFC, Z-FAR-AFC, Z-AP-AFC, Z-AAK-AFC, and Z-VLR-AFC. The final result would be a ranking of transition state candidate protease inactivators with a high ranking directly correlating to a low ECIoo value. The following steps describe the assay:
Step A: Initial Screening. To set up the test control, each protease inactivator was first incubated with the 5% cocktail (which provided the final differentiation of vehicles in Step III). To begin with, the protease inactivator was incubated at a concentration of 3×10^−9M in 500 μl of assay buffer (0.2 M Citrate, pH 4.9 supplemented with 10mM L-cysteine). This concentration was determined, after a series of inhibitor dilutions identified, to be the best inhibitor concentration at which a differentiation in inhibitor potential could be noted. Next, a concentration equal to 4×10^−5M for each of the individual cocktail components, was added to the mix. The components were allowed to equilibrate for a period of 30 minutes. […]
Percent inhibition was calculated as: [formula] […]
Step C: Determination ofInhibitor Ki and mode of inhibition, and re-ranking of EC100 list with inhibitor Ki. Ki of each of the top ranked protease inactivators, based upon low EC100 values, was assessed next for the top 5 EC100 inhibitors.
In order to determine Ki, all of the high Vmax cocktail substrates were employed for Ki determination (since Ki of the inhibitor for the enzyme is the same regardless of the substrate). To insure the highest accuracy, Ki was to be determined upon a minimum of at least three of the high Kcat substrates. […]

Compound	V Value (vehicle inhibition quotient, V=P*M) [1]	V Value (vehicle inhibition quotient, V=P*M) (Taenia solium crude mix)	cleavage as substrate (Vmax) [2]	other results
O=C(N[C@@H](CO)C(=O)N[C@@H](Cc1ccc(O)cc1)C(=O)Nc1ccc2c(C(F)(F)F)cc(=O)oc2c1)OCc1ccccc1 [Z-SY-AFC] (Cbz-Ser-Tyr-{AFC})	0.090	0.09		
NC(N)=NCCC[C@H](NC(=O)OCc1ccccc1)C(=O)N[C@@H](CCCN=C(N)N)C(=O)Nc1ccc2c(C(F)(F)F)cc(=O)oc2c1 [Z-RR-AFC] (Cbz-Arg-Arg-{AFC})		0.09		
CC(C)C[C@H](NC(=O)OCc1ccccc1)C(=O)NCC(=O)N[C@@H](CCCNC(=N)N)C(=O)Nc1ccc2c(C(F)(F)F)cc(=O)oc2c1 [Z-LGR-AFC, Z-Leu-Gly-Arg-AFC] (Cbz-Leu-Gly-Arg-{AFC})			noncleavable	
CC(C)C[C@H](NC(=O)OC(C)(C)C)C(=O)NCC(=O)N[C@@H](CCCNC(=N)N)C(=O)Nc1ccc2c(C(F)(F)F)cc(=O)oc2c1 [B-LGR-AFC] (Boc-Leu-Gly-Arg-{AFC})	0.07	0.02		
CC(C)C[C@H](NC(=O)[C@H](Cc1ccccc1)NC(=O)OCc1ccccc1)C(=O)N[C@@H](Cc1ccccc1)C(=O)Nc1ccc2c(C(F)(F)F)cc(=O)oc2c1 [Z-FLF-AFC] (Cbz-Phe-Leu-Phe-{AFC})	0.100	0.10		
CC(C)C[C@@H](/C=C/S(C)(=O)=O)NC(=O)[C@H](CC(C)C)NC(=O)[C@H](CC(C)C)NC(=O)OCc1ccccc1 [Z-LLL-VS, Z-Leu-Leu-Leu-vinylsulfone]				ranking of protease inactivators by inhibition / EC100 [3]: top inhibitors
CC(C)[C@H](NC(=O)OC(C)(C)C)C(=O)N1CCC[C@H]1C(=O)N[C@@H](CCCNC(=N)N)C(=O)Nc1ccc2c(C(F)(F)F)cc(=O)oc2c1 [B-VPR-AFC, Boc-Val-Pro-Arg-AFC] (Boc-Val-Pro-Arg-{AFC})			noncleavable	
NC(N)=NCCCC(NC(=O)C(Cc1ccccc1)NC(=O)OCc1ccccc1)C(=O)Nc1ccc2c(C(F)(F)F)cc(=O)oc2c1 (stereo not drawn) [Z-Phe-Arg-AFC] (Cbz-Phe-Arg-{AFC}; configuration not given here)			highest Vmax	

From patent US20030077653A1, “Method for the identification of active site protease inactivators” (The University of Georgia Research Foundation, Inc., priority 2000, published 2003)
